The results in this text go back to patent US20080221134A1, “8-ALKYNYLXANTHINES AND DERIVATIVES” (priority 2006, published 2008).

In one data set the target is T1, Adenosine A1 (Homo sapiens, UniProt P30542).
T1 sequence (P30542 1-326): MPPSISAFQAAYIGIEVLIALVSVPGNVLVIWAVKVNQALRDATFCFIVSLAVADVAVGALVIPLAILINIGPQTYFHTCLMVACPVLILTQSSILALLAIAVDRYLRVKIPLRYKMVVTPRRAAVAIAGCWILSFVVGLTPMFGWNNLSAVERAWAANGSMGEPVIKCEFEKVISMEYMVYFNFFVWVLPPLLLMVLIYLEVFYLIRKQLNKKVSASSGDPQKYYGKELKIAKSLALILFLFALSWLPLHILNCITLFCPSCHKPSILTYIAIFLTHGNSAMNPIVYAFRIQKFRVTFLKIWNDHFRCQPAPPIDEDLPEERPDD
Nature of the data set: Functional assay (luciferase reporter), inhibition of A1 adenosine receptor. The note with it: for A1 AR Imax: Imax in % of the corresponding antagonist (CPX); for A1 AR IC50 / IC50: CHO-DUKX-SRE-Luci-A1-44 cells, 3.5 μM ADAC; for A1 AR Ki / Ki: Ki=IC50/(1+agonist concentration/EC50); for IC50: read-out: A1 AR IC50; for Ki: read-out: A1 AR Ki. The data set is classed as cell-based. On the set-up: expressed in transfected cells; host or cells: CHO-DUKX-SRE-Luci-A1-44 (CHO-DUKX, vector pCineo). In general terms: In a reporter assay the amount or activity of a reporter protein is the signal.

The target in another data set is Adenosine A2A (Homo sapiens, UniProt P29274). Nature of the data set: Functional assay (luciferase reporter), inhibition of A2A adenosine receptor. Format: cell-based. The arrangement: expressed in transfected cells; host or cells: CHO-DUKX-CRE-A2A-19 (CHO-DUKX, vector pCineo). The note with it: for IC50: CHO-DUKX-CRE-A2A-19 cells, 60 nM NECA, read-out: A2A AR IC50; for A2A AR Imax: Imax in % of the corresponding antagonist; for Ki: Ki=IC50/(1+agonist concentration/EC50), read-out: A2A AR Ki.

Another data set has as its system rats. The experiment in a line: Modified Irwin test (FOB, SAC, FU). The data set is classed as in vivo, rat. The arrangement: key to Hypersensitivity / Temperature / Respiration / Tremor / Stereotypies / Patterns Activity / Motor Coordination / Catalepsy: +++ = very strong effect.; ++ = strong effect.; + = average effect.; 0 = no effect.; − = negative effect. The note with it: modified Irwin test, 0.01-30 mg/kg, compressed outcome. From the text:
In this study the compounds of the present invention were screened for basal behavioural, autonomic, neurological and toxicological side-effects in rats. For this purpose, a functional observational battery (FOB) in form of an Irwin test (Irwin S., Psychopharmacologia, 1968, 13, 222; 1968; Warburton D. M. Psychopharmacology, 2002, 163, 4; Haggerty G. C. et al., J. Amer. Coll. Toxicol., 1991, 10, 677; Mattsson J. L. et al., J. Amer. Coll. Toxicol., 1996, 15, 239, all references are herein incorporated by reference) modified and validated by the Test Facility was used. Each test compound was tested at eight doses (0.01, 0.03, 0.1, 0.3, 1.0, 3.0, 10.0 and 30.0 mg/kg). All compounds were dissolved in DMSO (administration volume 1 ml/kg). Each dose group included three animals. Two vehicle groups (DMSO and Labrasol) served as negative controls.
At the first day of each test week all test compound solutions necessary for the test (1-2 weeks) were prepared by means of one dilution series starting with the highest concentration. All test compounds dissolved in DMSO were administered in a volume of 1 ml/kg. DMSO-containing solutions were stored at −18° C. All solutions were melted for administration at room temperature 16-20 hours before the start of the test.
Study design and time schedule:
4-7 days: Acclimatization and handling of the animals 1 day: Test day with • (a) Four repeated functional observational battery (FOB): 30 min, 60 min, 120 min, 180 min following compound administration • (b) Short animal check (SAC): 300 min following compound administration 1 day: Follow-up observation (FU): • 24 h (1440 min) following compound administration.
In all experimental parts, an experienced ethologist used lists of predefined methods and behavioural parameters in order to rate the behaviour of the animal (see table 7 for functional observational battery (FOB), table 8 for short animal check (SAC) and table 9 for follow-up observation (FU).
A statistical evaluation of the data was performed that enabled an assessment of the compound's effects on each parameter. Dose-response relationships are not necessarily linear. It was not clear a priori whether the response would be dose-dependent or whether low, medium or high dose effects would occur. Therefore, the data were correlated against a set of different numeric models of theoretical dose-response curves. For this kind of evaluation the measurement times were not differentiated. An average value over all measurement times was calculated for each animal. This value was taken as one measurement within the observation vector. The complete set of parameters measured for the animal (each one averaged over time) formed the observation vector. Each dose was then represented by three observation vectors (3 animals per dose). The effects of all doses were compared with vehicle (DMSO) as the observation vectors for the zero dose. A common pool of 24 animals for the zero dose was used for all compounds to be tested. For each test compound the obtained values for each parameter together with values from the pool of vehicle-treated (DMSO) animals were then correlated with theoretical dose-response models (analysis profiles). Since 8 doses were be used, there were 8 models, each assuming that the maximum compound effect occurred at one of these doses. Effects of other doses were assumed to be attenuated with a linearly descending slope of the theoretical curve. Correlation values and statistical significance of regression were then calculated. An error probability of p<0.05 (two-tailed testing) was taken as significance level. Non-significant regressions were neglected. In consequence, each parameter was assessed as not affected or affected by the compound in a dose-response relationship according to type 1 (low dose effect) up to type 8 (high dose effect). Dose response is maximal for the effect with the greatest absolute correlation coefficient. […]

Adenosine A2A, sequence (P29274 whole entry): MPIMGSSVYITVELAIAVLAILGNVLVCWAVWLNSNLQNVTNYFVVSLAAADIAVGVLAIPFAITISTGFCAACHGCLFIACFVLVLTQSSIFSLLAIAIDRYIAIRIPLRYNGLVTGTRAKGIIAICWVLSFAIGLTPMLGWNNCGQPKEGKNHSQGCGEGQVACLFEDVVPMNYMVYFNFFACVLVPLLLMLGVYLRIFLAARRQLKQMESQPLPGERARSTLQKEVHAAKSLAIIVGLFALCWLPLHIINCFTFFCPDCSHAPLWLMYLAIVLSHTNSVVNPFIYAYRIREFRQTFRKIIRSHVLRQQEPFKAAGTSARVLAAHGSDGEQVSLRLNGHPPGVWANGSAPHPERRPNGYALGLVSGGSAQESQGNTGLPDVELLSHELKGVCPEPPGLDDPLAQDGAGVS

Regarding `CCCn1c(=O)c2[nH]c(C3CCCC3)nc2n(CCC)c1=O` [CPX, 8-Cyclopentyl 1,3-diprophylxanthine, reference compound], the “A1 AR Imax” value at Adenosine A1 turned out to be 100%.

Regarding `C#CCn1c(=O)c2c(nc(C#Cc3cccc(OC)c3)n2C)n(C)c1=O` [drawing 617], on Adenosine A2A, the IC50 amounted to 1900 nM, the “A2A AR Imax” value is 90% and the Ki was 178 nM. Also, at Adenosine A1, the “A1 AR IC50” value is “Nosignificantactivitydetected”, the “A1 AR Imax” value is recorded as “Nosignificantactivitydetected” and the “A1 AR Ki” value is listed as “Nosignificantactivitydetected”.

For the compound `C#CCn1c(=O)c2c(nc(C#Cc3ccc(OC)c(OC)c3)n2C)n(CC)c1=O` [drawing 618], on Adenosine A2A, the IC50 is 200 nM, the “A2A AR Imax” value was 97% and the Ki is 23 nM. Moreover, on Adenosine A1, the IC50 was determined as 3900 nM, the “A1 AR Imax” value came to 49% and the Ki amounted to 854 nM.

As for `C#CCn1c(=O)c2c(nc(C#Cc3ccc(OC)c(OC)c3)n2C)n(C)c1=O` [drawing 619], at Adenosine A2A, the half-maximal inhibitory concentration (IC50) worked out at 600 nM, the “A2A AR Imax” value came to 95% and the inhibition constant Ki turned out to be 58 nM. Moreover, at Adenosine A1, the “A1 AR IC50” value is on record as “Nosignificantactivitydetected”, the “A1 AR Imax” value is “Nosignificantactivitydetected” and the “A1 AR Ki” value is listed as “Nosignificantactivitydetected”.

On to `C#CCn1c(=O)c2c(nc(C#Cc3cccc(OC)c3)n2C)n(CCCO)c1=O` [drawing 620], for which, at Adenosine A2A, the IC50 amounted to 900 nM, the “A2A AR Imax” value is 117% and the Ki was determined as 82 nM. On Adenosine A1, the IC50 turned out to be 1700 nM, the “A1 AR Imax” value was 90% and the Ki came to 370 nM.

Regarding `C#CCn1c(=O)c2c(nc(C#Cc3cccc(OC)c3)n2CC#C)n(C)c1=O` [drawing 621], at Adenosine A2A, the IC50 came out at 500 nM, the “A2A AR Imax” value was determined as 86% and the Ki is 47 nM. At Adenosine A1, the IC50 was 2300 nM, the “A1 AR Imax” value is 55% and the Ki is 501 nM.

Regarding `C#CCn1c(=O)c2c(nc(C#Cc3ccc(OC)c(OC)c3)n2C)n(CCCO)c1=O` [drawing 622], at Adenosine A2A, the IC50 was found to be 300 nM, the “A2A AR Imax” value worked out at 117% and the Ki amounted to 26 nM. For the same compound, at Adenosine A1, the IC50 worked out at 1800 nM, the “A1 AR Imax” value worked out at 92% and the Ki was determined as 401 nM.

As for `C#CCn1c(=O)c2c(nc(C#Cc3cccc(C)c3)n2C)n(CCCO)c1=O` [drawing 623], at Adenosine A2A, the IC50 came out at 400 nM, the “A2A AR Imax” value is recorded as 109% and the Ki was 40 nM. On Adenosine A1, the IC50 is 1300 nM, the “A1 AR Imax” value amounted to 102% and the inhibition constant (Ki) is 289 nM.

`C#CCn1c(=O)c2c(nc(C#Cc3ccc(OC)c(OC)c3)n2C)n(CC)c1=O` [drawing 624]: in the data set on rats, the Catalepsy amounted to 0, the Hypersensitivity result was “++”, the “Motor Coordination” value is given as 0 and the “Patterns Activity” value is “+++”. Moreover, in the data set with rats, the Respiration entry is “+++”, the Stereotypies result is given as “++”, the Temperature result is on record as “+” and the Tremor was 0.

As to `C#CCn1c(=O)c2c(nc(C#Cc3ccc(OC)c(OC)c3)n2C)n(CCCO)c1=O` [drawing 625], in the data set with rats, the Catalepsy stood at 0, the Hypersensitivity is recorded as 0, the “Motor Coordination” value is listed as “−” and the “Patterns Activity” value is on record as “++”. In addition, in the data set on rats, the Respiration entry is “+++”, the Stereotypies result is recorded as “+”, the Temperature result is listed as “−” and the Tremor result is “+”.

On to `C#CCn1c(=O)c2c(nc(C#Cc3cccc(OC)c3)n2C)n(CCCO)c1=O` [drawing 626], for which, in the data set on rats, the Catalepsy is 0, the Hypersensitivity entry is reported as “+”, the “Motor Coordination” value was determined as 0 and the “Patterns Activity” value is on record as “+”. Besides, in the data set with rats, the Respiration result is “++”, the Stereotypies is reported as 0, the Temperature was 0 and the Tremor came out at 0.

What is called IC50 is the point on the concentration scale where inhibition reaches its midpoint. By Ki is commonly meant a measure of affinity in units of concentration, obtained from inhibition or displacement.
